For seven compounds, GI50 and TGI results are on record in PubChem BioAssay (NCI).

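Grown in 96-well plates, cells were treated for 48 hours with each compound at five concentrations. Insufficient inhibition: endpoint recorded as highest concentration tested. GI50: concentration for 50% inhibition of growth. At the TGI there is no net growth.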

Some test systems named below: 786-0 renal; SF-268 CNS; SK-MEL-5 melanoma; HS 578T breast; UACC-257 melanoma; HCT-116 colon; CCRF-CEM leukemia; HOP-62 NSCLC; T-47D breast; A549 NSCLC.
Holding throughout (assay): NCI-60 cell line screen, 48 h

Consider `O=C(Nc1ccc(I)cc1)c1cc([N+](=O)[O-])ccc1O`, for which the GI50 is 6.4 µM in the experiment with 786-0 renal; 7.03 µM in the experiment on SF-268 CNS; 3.63 µM in the experiment on SK-MEL-5 melanoma; 3.13 µM in the experiment on HS 578T breast; 6.89 µM with UACC-257 melanoma; 6.21 µM in the experiment with HCT-116 colon. The GI50 is 3.69 µM with CCRF-CEM leukemia, 16.4 µM with HOP-62 NSCLC, 3.87 µM in the experiment on T-47D breast and 11.6 µM with A549 NSCLC. Further, the TGI in the experiment with 786-0 renal was more than 100 µM; in the experiment on SF-268 CNS, more than 100 µM; in the experiment with SK-MEL-5 melanoma, 18.6 µM; with HS 578T breast, 29.3 µM; with UACC-257 melanoma, 34.6 µM; with HCT-116 colon it was 31.7 µM. Also, the TGI is 50.1 µM with CCRF-CEM leukemia, more than 100 µM in the experiment on HOP-62 NSCLC, more than 100 µM in the experiment on T-47D breast and more than 100 µM with A549 NSCLC.
As to `Cn1ccnc1C(=O)/C=C/c1ccc(CC(=O)Nc2ccc(Br)cc2)cc1`, the GI50 in the experiment on 786-0 renal was 2.77 µM; with SF-268 CNS, 3.34 µM; in the experiment on SK-MEL-5 melanoma, 3.58 µM; in the experiment with HS 578T breast it was 7.83 µM; in the experiment on UACC-257 melanoma, 15.6 µM; with HCT-116 colon, 1.56 µM. Moreover, the GI50 was 3.04 µM in the experiment on CCRF-CEM leukemia, 3.34 µM in the experiment on HOP-62 NSCLC, 5.5 µM in the experiment with T-47D breast and 4.68 µM in the experiment with A549 NSCLC. The TGI with 786-0 renal was 5.92 µM; with SF-268 CNS, 13 µM; with SK-MEL-5 melanoma it was 8.25 µM; with HS 578T breast it was more than 16.7 µM; in the experiment on UACC-257 melanoma, more than 16.7 µM; in the experiment with HCT-116 colon, 4.63 µM. Besides, the TGI is more than 16.7 µM in the experiment with CCRF-CEM leukemia, 7.9 µM in the experiment with HOP-62 NSCLC, more than 16.7 µM with T-47D breast and 13.2 µM with A549 NSCLC.
As to `C=C(CNCCO)[C@@H]1CC[C@]2(CO)CC[C@]3(C)[C@H](CC[C@@H]4[C@@]5(C)CCC(N)C(C)(C)[C@@H]5CC[C@]43C)[C@@H]12` (stereo partly specified), the GI50 was 1.63 µM with 786-0 renal; 2.61 µM in the experiment on SF-268 CNS; 1.73 µM in the experiment on SK-MEL-5 melanoma; 2.33 µM with HS 578T breast; 1.8 µM in the experiment on UACC-257 melanoma; 1.81 µM in the experiment on HCT-116 colon. Further, the GI50 was 2.04 µM with CCRF-CEM leukemia, 2.79 µM with HOP-62 NSCLC, 2.07 µM in the experiment on T-47D breast and 2.41 µM in the experiment on A549 NSCLC. Also, the TGI with 786-0 renal turned out to be 3.31 µM; in the experiment on SF-268 CNS, 10.3 µM; in the experiment on SK-MEL-5 melanoma, 3.18 µM; in the experiment with HS 578T breast, 6.92 µM; with UACC-257 melanoma, 3.23 µM; in the experiment on HCT-116 colon it was 3.84 µM. Besides, the TGI with CCRF-CEM leukemia is 5.93 µM; with HOP-62 NSCLC, 7.36 µM; in the experiment with T-47D breast, 3.95 µM; with A549 NSCLC it was 6.69 µM.
In the case of `CC(=O)[O][Hg][c]1c(N)c(C)cc(C)c1F`, the GI50 is 1.79 µM in the experiment with 786-0 renal; 1.22 µM in the experiment with SF-268 CNS; 1.48 µM with SK-MEL-5 melanoma; 1.6 µM in the experiment on HS 578T breast; 1.51 µM in the experiment on UACC-257 melanoma; 1.88 µM with HCT-116 colon. The GI50 in the experiment on CCRF-CEM leukemia is 0.401 µM; in the experiment with HOP-62 NSCLC it was 2.75 µM; in the experiment on T-47D breast, 1.39 µM; with A549 NSCLC, 9.72 µM. For the same compound, the TGI amounted to 3.32 µM in the experiment on 786-0 renal; 2.7 µM in the experiment with SF-268 CNS; 2.88 µM in the experiment on SK-MEL-5 melanoma; 6.85 µM in the experiment with HS 578T breast; 2.96 µM in the experiment on UACC-257 melanoma; 3.92 µM with HCT-116 colon. Also, the TGI with CCRF-CEM leukemia was more than 24.3 µM; in the experiment with HOP-62 NSCLC it was 5.49 µM; with T-47D breast, 4.47 µM; with A549 NSCLC, 28.8 µM.
With `CN(C)CCCNC1=C(Cl)C(=O)c2ccccc2C1=O`, the GI50 in the experiment on 786-0 renal was 11.3 µM; with SF-268 CNS, 4.88 µM; in the experiment on SK-MEL-5 melanoma it was 1.6 µM; with HS 578T breast it was 2.2 µM; in the experiment with UACC-257 melanoma, 1.82 µM; in the experiment with HCT-116 colon it was 2.28 µM. Further, the GI50 was 3.9 µM with CCRF-CEM leukemia, 6.23 µM in the experiment on HOP-62 NSCLC, 2.94 µM with T-47D breast and 16.1 µM in the experiment on A549 NSCLC. Also, the TGI is 24.2 µM with 786-0 renal; 2.96 µM in the experiment on SK-MEL-5 melanoma; 7.02 µM with HS 578T breast; 3.25 µM in the experiment on UACC-257 melanoma; 6.04 µM with HCT-116 colon; 14.4 µM in the experiment with CCRF-CEM leukemia. For the same compound, the figures for the TGI with HOP-62 NSCLC, in the experiment with T-47D breast and in the experiment with A549 NSCLC were 17.5 µM, 9.33 µM and 32.5 µM, respectively.
For the compound `CCOc1ccccc1-n1c(CN2CCN(C(=O)COc3ccc(CNCCCCCCN4C5CCCC4CC(OC(=O)Nc4cc(C)ccc4OC)C5)cc3)CC2)nc2ccccc2c1=O` (stereo unspecified), the GI50 in the experiment on 786-0 renal was 1.58 µM; in the experiment on SF-268 CNS it was 1.44 µM; in the experiment with SK-MEL-5 melanoma, 1.52 µM; in the experiment on HS 578T breast, 1.86 µM; with UACC-257 melanoma, 1.88 µM; in the experiment on HCT-116 colon, 0.616 µM. The GI50 in the experiment with CCRF-CEM leukemia was 0.16 µM; with HOP-62 NSCLC, 1.7 µM; in the experiment with T-47D breast, 1.78 µM; in the experiment on A549 NSCLC, 1.67 µM. The TGI with 786-0 renal came out at 3.09 µM; in the experiment on SF-268 CNS, 2.99 µM; in the experiment with SK-MEL-5 melanoma it was 2.92 µM; in the experiment on HS 578T breast, 3.94 µM; with UACC-257 melanoma it was 3.45 µM; with HCT-116 colon it was 1.32 µM. Besides, the TGI in the experiment on CCRF-CEM leukemia was 1.21 µM; in the experiment with HOP-62 NSCLC it was 3.25 µM; with T-47D breast, 3.88 µM; with A549 NSCLC, 3.27 µM.
For `O=C1c2ccccc2C(=O)c2sc(Nc3cccc(Cl)c3)nc21`, the TGI with 786-0 renal stood at 3.74 µM; in the experiment on SF-268 CNS it was 4.69 µM; with SK-MEL-5 melanoma it was 2.99 µM; in the experiment on HS 578T breast it was 9.15 µM; in the experiment on UACC-257 melanoma it was 2.99 µM; in the experiment with HCT-116 colon, 2.54 µM. The TGI in the experiment with CCRF-CEM leukemia turned out to be 3.89 µM; in the experiment on HOP-62 NSCLC, 3.19 µM; with T-47D breast, 5.98 µM; in the experiment with A549 NSCLC, 4.6 µM. Besides, the GI50 in the experiment on HS 578T breast was 2.82 µM; with T-47D breast, 1.84 µM.
